Experimental data published in ChEMBL document CHEMBL5376011, “Discovery of Anti-Hypercholesterolemia Agents Targeting LXRα from Marine Microorganism-Derived Natural Products” (J Nat Prod, 2024).
Active and inactive are the calls of the source. The rule behind the calls is not given here.

Tests used:
[1] = tested on: Mus musculus; assay: Antihypercholesterolemic activity against high cholesterol diet fed LXRalpha knockout C57BL/6J mouse assessed as reduction in serum high density lipoprotein cholesterol level at 300 microg/kg, ip administered every 2 days for 15 days; format: functional, organism-based; conditions: dose 300.0 µg/kg, time 15.0 day
[2] = biological target: T1, Oxysterols receptor LXR-alpha (Homo sapiens, UniProt Q13133); assay: Binding affinity to full length human LXRalpha assessed as dissociation constant by SPR analysis
T1 sequence (Q13133 whole entry): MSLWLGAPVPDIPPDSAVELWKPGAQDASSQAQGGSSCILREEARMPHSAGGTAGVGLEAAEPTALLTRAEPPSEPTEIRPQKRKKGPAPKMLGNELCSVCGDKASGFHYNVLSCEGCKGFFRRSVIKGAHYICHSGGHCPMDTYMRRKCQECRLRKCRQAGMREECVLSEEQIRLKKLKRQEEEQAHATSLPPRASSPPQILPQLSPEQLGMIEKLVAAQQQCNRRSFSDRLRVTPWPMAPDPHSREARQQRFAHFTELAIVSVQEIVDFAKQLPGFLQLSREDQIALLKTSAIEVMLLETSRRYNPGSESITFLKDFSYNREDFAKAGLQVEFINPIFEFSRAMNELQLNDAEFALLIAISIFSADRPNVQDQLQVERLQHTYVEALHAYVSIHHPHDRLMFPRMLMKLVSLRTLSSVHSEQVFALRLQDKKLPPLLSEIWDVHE

[3] = tested on: Mus musculus; assay: Antihypercholesterolemic activity against high cholesterol diet fed LXRalpha knockout C57BL/6J mouse assessed as improvement in hepatic steatosis at 300 microg/kg, ip administered every 2 days for 15 days by H&E staining based analysis; format: functional, organism-based; conditions: dose 300.0 µg/kg, time 15.0 day
[4] = tested on: Mus musculus; assay: Antihypercholesterolemic activity against high cholesterol diet fed C57BL/6J mouse assessed as reduction in FASN protein level at 300 microg/kg, ip administered every 2 days for 15 days by Western blot analysis; format: functional, organism-based; conditions: dose 300.0 µg/kg, time 15.0 day
[5] = tested on: Mus musculus; assay: Antihypercholesterolemic activity against high cholesterol diet fed LXRalpha knockout C57BL/6J mouse assessed as improvement in liver lipid droplet accumulation at 300 microg/kg, ip administered every 2 days for 15 days by Oil red staining based analysis; format: functional, organism-based; conditions: dose 300.0 µg/kg, time 15.0 day
[6] = tested on: Mus musculus; assay: Antihypercholesterolemic activity against high cholesterol diet fed LXRalpha knockout C57BL/6J mouse assessed as upregulation in CYP7A1 protein level at 300 microg/kg, ip administered every 2 days for 15 days by Western blot analysis; format: functional, organism-based; conditions: dose 300.0 µg/kg, time 15.0 day
[7] = tested on: Mus musculus; assay: Antihypercholesterolemic activity against high cholesterol diet induced C57BL/6J mouse assessed as reduction in hepatocyte damage at 300 microg/kg, ip administered every 2 days for 15 days; format: functional, organism-based; conditions: dose 300.0 µg/kg, time 15.0 day
[8] = tested on: Mus musculus; assay: Antihypercholesterolemic activity against high cholesterol diet fed LXRalpha knockout C57BL/6J mouse assessed as reduction in serum low density lipoprotein cholesterol level at 300 microg/kg, ip administered every 2 days for 15 days; format: functional, organism-based; conditions: dose 300.0 µg/kg, time 15.0 day
[9] = tested on: Mus musculus; assay: Antihypercholesterolemic activity against high cholesterol diet induced C57BL/6J mouse assessed as reduction in serum alanine aminotransferase level at 300 microg/kg, ip administered every 2 days for 15 days; format: functional, organism-based; conditions: dose 300.0 µg/kg, time 15.0 day
[10] = tested on: HepG2; assay: Effect on ABCG1 mRNA expression in human HepG2 cells at 25 uM incubated for 24 hrs by RT-qPCR analysis; format: functional, cell-based
[11] = tested on: Mus musculus; assay: Antihypercholesterolemic activity against high cholesterol diet fed C57BL/6J mouse assessed as reduction in hepatocyte lysis necrosis at 300 microg/kg, ip administered every 2 days for 15 days by H&E staining based analysis; format: functional, organism-based; conditions: dose 300.0 µg/kg, time 15.0 day
[12] = biological target: T2, Oxysterols receptor LXR-alpha (Homo sapiens) (UniProt Q13133); assay: Agonist activity at LXRalpha in human HepG2 cells assessed as upregulation of CYP7A1 protein expression level at 25 uM incubated for 24 hrs by Western blot analysis; format: cell-based; conditions: filed as agonist
T2 sequence (whole entry): T1 sequence (Q13133 whole entry)

[13] = tested on: Mus musculus; assay: Antihypercholesterolemic activity against high cholesterol diet fed LXRalpha knockout C57BL/6J mouse assessed as reduction in serum alanine aminotransferase level at 300 microg/kg, ip administered every 2 days for 15 days; format: functional, organism-based; conditions: dose 300.0 µg/kg, time 15.0 day
[14] = tested on: HepG2; assay: Improvement of lipid metabolism in palmitic acid and oleic acid induced human HepG2 cell model of hepatic steatosis assessed as reduction in lipid droplets at 25 uM preincubated with palmitic acid and oleic acid for 48 hrs followed by compound addition and measured after 24 hrs by Oil Red O staining based analysis; format: functional
[15] = tested on: Mus musculus; assay: Antihypercholesterolemic activity against high cholesterol diet fed C57BL/6J mouse assessed as reduction in SCD1 protein level at 300 microg/kg, ip administered every 2 days for 15 days by Western blot analysis; format: functional, organism-based; conditions: dose 300.0 µg/kg, time 15.0 day
[16] = tested on: Mus musculus; assay: Antihypercholesterolemic activity against high cholesterol diet fed LXRalpha knockout C57BL/6J mouse assessed as improvement in hepatocellular degeneration at 300 microg/kg, ip administered every 2 days for 15 days by H&E staining based analysis; format: functional, organism-based; conditions: dose 300.0 µg/kg, time 15.0 day
[17] = Cytotoxicity against human HepG2 cells assessed as reduction in cell viability incubated for 24 hrs by CCK8 assay; format: toxicity, cell-based
[18] = tested on: Mus musculus; assay: Antihypercholesterolemic activity against high cholesterol diet fed C57BL/6J mouse assessed as reduction in SREBP1 protein level at 300 microg/kg, ip administered every 2 days for 15 days by Western blot analysis; format: functional, organism-based; conditions: dose 300.0 µg/kg, time 15.0 day
[19] = tested on: HepG2; assay: Improvement of lipid metabolism in palmitic acid and oleic acid induced human HepG2 cell model of hepatic steatosis assessed as reduction in triglyceride level at 25 uM preincubated with palmitic acid and oleic acid for 48 hrs followed by compound addition and measured after 24 hrs; format: functional, cell-based
[20] = biological target: T2, Oxysterols receptor LXR-alpha (Homo sapiens); assay: Agonist activity at LXRalpha in human HepG2 cells assessed as upregulation of CYP7A1 mRNA expression by measuring fold change at 25 uM incubated for 24 hrs by RT-qPCR analysis; format: cell-based; conditions: filed as agonist
[21] = biological target: T2, Oxysterols receptor LXR-alpha (Homo sapiens); assay: Agonist activity at LXRalpha in human HepG2 cells assessed as upregulation of ABCA1 mRNA expression by measuring fold change at 25 uM incubated for 24 hrs by RT-qPCR analysis; format: cell-based; conditions: filed as agonist
[22] = tested on: Mus musculus; assay: Antihypercholesterolemic activity against high cholesterol diet induced C57BL/6J mouse assessed as reduction in total cholesterol level in plasma at 300 microg/kg, ip administered every 2 days for 15 days; format: functional, organism-based; conditions: dose 300.0 µg/kg, time 15.0 day

**Q.** Which Activity [1] does the source give for `COc1ccc2c3c([nH]c2c1)[C@H](C=C(C)C)N1C(=O)[C@@H]2CCCN2C(=O)[C@]1(O)[C@H]3O` here?
**A.** inactive

**Q.** What about the Kd [2] of the same compound?
**A.** 5.6 nM

**Q.** And the Activity [3]?
**A.** Active

**Q.** And the Activity [4]?
**A.** Active

**Q.** And the Activity [5]?
**A.** Active

**Q.** And the Activity [6]?
**A.** inactive

**Q.** And the Activity [7]?
**A.** Active

**Q.** And the Activity [8]?
**A.** inactive

**Q.** And the Activity [9]?
**A.** Active

**Q.** What about the Activity [10] of the same compound?
**A.** inactive

**Q.** And the Activity [11]?
**A.** Active

**Q.** And the Activity [12]?
**A.** Active

**Q.** And the Activity [13]?
**A.** inactive

**Q.** What about the Activity [14] of the same compound?
**A.** Active

**Q.** What about the Activity [15] of the same compound?
**A.** Active

**Q.** And the Activity [16]?
**A.** Active

**Q.** What about the IC50 at 24 h [17] of the same compound?
**A.** > 50000 nM

**Q.** What about the Activity [18] of the same compound?
**A.** Active

**Q.** And the Activity [19]?
**A.** Active

**Q.** And the fold change (FC) [20]?
**A.** 5.02

**Q.** And the fold change (FC) [21]?
**A.** 2.13

**Q.** And the Activity [22]?
**A.** Active
